Values joined by “and” are separate entries in the source; they are usually repeats but may differ in a detail not shown here. Equal entries are not always repeated. “Also recorded” adds a separate entry of the source.
Experiments:
[1] = tested on: rabbit small clot embolic stroke model (RSCEM); assay: Rabbit small clot embolic stroke model (RSCEM), quantal dose-response analysis of behavior; format: in vivo, Male New Zealand white rabbits; details: TSC 0.25 mg/kg IV bolus 1 hour post-embolization; behavior measured 24 hours following embolization; Mean±SEM
Source text: Methods: This model uses rabbits and is known as RSCEM. Male New Zealand white rabbits were anesthetized using isoflurane (5% induction, 2% maintenance by facemask), the bifurcation of the right carotid artery was exposed and the external carotid was ligated just distal to the bifurcation, where a catheter was inserted into the common carotid and secured with ligatures. The incision was closed around the catheter with the distal ends left accessible outside the neck; the catheter was filled with heparinized saline and plugged with an injection cap. Rabbits were allowed to recover from anesthesia for a minimum of 2 h until they behaved normally. […] Microclots were re-suspended in PBS, then washed and allowed to settle, followed by aspiration of the supernatant and spiking of the microclots with tracer quantities of 15-μm radiolabeled microspheres. The specific activity of the particles was determined by removing an aliquot, after which appropriate volumes of PBS solution were added so that a predetermined weight of clot particles were rapidly injected through the catheter and both the syringe and catheter were flushed with 5 ml of normal saline. […]
These parameters are measures of the amount of microclots (in mg) that produce neurologic dysfunction in 50% of a group of animals (P50). The P50 values are then calculated as described previously and are presented as Mean±SEM. […]

[2] = tested on: collagenase-injection model of ICH; assay: Collagenase-injection model of intracranial hemorrhage (ICH); format: in vivo, Sprague-Dawley rats
Procedure: Twelve male, Sprague-Dawley rats (Taconic, Inc.), weighing between 250 to 300 Grams were fed ad libitum and maintained on a 12-hour light/dark cycle. The rats were randomly assigned to 1 of 2 groups as follows: TSC-treated group (n=6) receiving intravenous infusion of TSC (total dose 0.091 mg/kg) and a Control group receiving intravenous infusion of 0.9% normal saline. A collagenase-injection model of ICH was utilized. Animals were anesthetized for 5 minutes with 5% halothane and endotracheally intubated. Anesthesia was maintained under 1 to 1.5% halothane with ventilation supported using Fi02 of 50%. Tail artery cannulation was applied to monitor the blood pressure and arterial blood gas, and a rectal temperature probe monitored body temperature. The right femoral vein was cannulated and connected to a microinjection infusion pump for TSC or saline administration. Body temperature was maintained at 37° C. with a heating pad. Rats were secured into a stereotactic frame with a midline incision over the skull and a cranial burr hole of 1 mm in diameter was drilled with 0.2 mm anterior and 3.5 mm right lateral to Bregma. A 26-gauge needle was inserted stereotactically into the right basal ganglion (5.5 mm ventral) and 5 μL collagenase (0.05 U bacteria collagenase; type IV, Sigma Chemical Co.) was infused at a rate of 1 μL/min using a microinfusion pump. The needle was kept in the striatum for an additional 5 minutes to limit collagenase flow back into the burr hole. After withdrawing the needle, the craniotomy was sealed with bone wax and the wound was sutured closed. TSC was injected intravenously 3 hours after ICH at a final total dosage of 0.091 mg/kg. The TSC formulation used was the sterile lyophilized TSC injectable formulation which was reconstituted with sterile water for injection and diluted with deionized water pH'd to 8.0 with dilute sodium carbonate. […] The outcomes assessed 48 hours post-ICH included hematoma volume, hemoglobin content representing hemorrhagic volume in the injected striatum, and tissue edema. […] Using Meta Morph image analysis software, the hemorrhage area for each section was measured and the total hematoma volume was calculated by summing the clot area in each section and multiplying by the thickness of the sections. A tissue edema index was calculated in each rat by measuring and comparing both of the hemispheres (Edema Index=(R−L)×100/L, R is right hemisphere volume, L is left hemisphere volume). A hemorrhagic volume index was quantified by measuring hemoglobin content in the injected hemisphere. […] This reaction converts hemoglobin to cyanomethemoglobin, the concentration of which can be assessed by the optical density (OD) of the solution at 550 nm wavelength. […]

[3] = Solubility of TSC in aqueous cyclodextrin solutions; format: physicochemical
[4] = Absorption of TSC into the blood stream after intramuscular injection with gamma cyclodextrin; format: in vivo; details: rats
[5] = Stability of TSC in formulation as a function of pH; format: physicochemical; details: formulation with glycine buffer; pH around 8.2+/-0.5 required
[6] = tested on: ischemic tissue in brain sections; assay: Ischemic stroke model: middle cerebral artery and two carotid arteries ligated for 2 hours; format: in vivo; details: TSC 0.1 mg/kg given after removal of 2 hour ligature; rats sacrificed after 24 hours
Procedure: In order to find new drugs for stoke victims, different animal models of ischemic stroke are used. In one model, blood vessels (middle cerebral artery, two carotid arteries) are ligated for a period of 2 hours. The ligature is then removed, a drug is given, and the animals (rats in this case) are sacrificed after 24 hours. The brain sections are stained and examined in order to determine the amount of damaged (ischemic) tissue.

[7] = TSC 0.1 mg/kg, rat collagenase model (summary in description)

TSC concentration reached in solution ([3]; TSC formulated with a cyclodextrin and mannitol): over 20 mg TSC/ml of solution
absorption into the blood stream [4]: quick
stability versus pH [5]: more stable at higher pHs
Structure (SMILES): CC(/C=C/C=C(\C)C(=O)[O-])=C\C=C\C=C(C)\C=C\C=C(/C)C(=O)[O-].[Na+].[Na+] [TSC, trans sodium crocetinate]
P50 (amount of microclots that produces neurologic dysfunction in 50% of a group of animals) [1]: 2.84±1.01 mg and 2.84±0.51 mg
hemorrhage volume (amount of blood that hemorrhages into the brain) [2, 7]: decrease
reduction in amount of edema caused by the hemorrhagic stroke [2, 7]: about 50%
hematoma volume/size after ICH vs saline control ([2]; TSC total dose 0.091 mg/kg IV starting 3 hours after ICH, assessed 48 hours post-ICH, n=6, 0.091 mg/kg): slightly, but not statistically significantly, reduced; also recorded: did not differ
reduction in hemorrhagic volume (tissue hemoglobin content) vs saline control ([2]; TSC total dose 0.091 mg/kg IV starting 3 hours after ICH, assessed 48 hours post-ICH, n=6, p<0.05): approximately 20%
TSC concentration reached in aqueous solution ([3]; TSC and gamma-cyclodextrin): ≤ 44 milligrams of TSC per ml of solution
reduction in the amount of ischemic tissue [6]: about 60%
